Reference: US8202909B2, “Method for treating central nervous system disorders” (Sucampo AG, priority 2005, dated 2012)
Marks after values point to notes of the source that are not given here.

What was measured:
[1] = tested on: Human vascular endothelial cell cultures; experiment: Recovery of transendothelial electrical resistance (TEER) after oxygen deprivation; format: cell-based; conditions: 5 nM with 0.1% DMSO, after 30 minutes oxygen deprivation in nitrogen atmosphere; FIG. 1
Protocol: FIG. 1 is a graph showing the effect of Compound A on Recovery of Transendothelial Electrical Resistance (TEER). Human vascular endothelial cell cultures were brought to confluence, as measured by transendothelial electrical resistance (TEER). The cell cultures were then deprived of oxygen for 30 minutes by incubation in a nitrogen atmosphere. The cells were then either treated with 0.1% DMSO or with 5 nM Compound A with 0.1% DMSO. Statistical significance is indicated at all data points after drug treatment. N=10 cells.
Human vascular endothelial cell cultures were brought to confluence, as measured by transendothelial electrical resistance (TEER). The cell cultures were then deprived of oxygen for 30 minutes by incubation in a nitrogen atmosphere. The cells were then either treated with 0.1% DMSO or with 5 nM Compound A with 0.1% DMSO final.

Crj: CD (SD) male rats = experiment: Cerebral infarct volume after transient focal cerebral ischemia (MCA occlusion-reperfusion) in rats; format: in vivo; conditions: for Infarct volume: brain removed 24 hours after MCA occlusion, mean±S.E., n=10
Protocol: Seven-week-old Crj: CD (SD) male rats were housed in polymethylpentene cages in an animal room controlled for room temperature (22-26° C.), relative humidity (47-60%), ventilation rate (10-20 times/hour) and light-dark cycle (lighting: 7:00 to 19:00) for at least 6 days. The animals were allowed free access to pellet diet and water from water bottles. Animals judged to be in good health were used in this study.
Rats were anesthetized by inhalation of a gas mixture of 2% isoflurane and N2O:O2 (=7:3), stabilized in the supine position, and maintained in the anesthetized state by inhalation of the above gas mixture. The animals were monitored for rectal temperature using a temperature probe during the period of the surgical operation. When a fall in body temperature was observed, an incandescent lamp was used to maintain the temperature at around 37° C. The right common carotid artery, external carotid artery, and internal carotid artery were exposed for occluding the middle cerebral artery (hereafter, MCA). The right common carotid artery and the external carotid artery were ligatured using sutures (5-0), and a 19 mm-long segment of No. 4-0 nylon suture which were precoated with silicone was inserted into the MCA through the bifurcation of the external and internal carotid arteries to occlude the MCA. At 2 hours after the MCA occlusion, the suture was removed and the blood flow in the MCA was restored.
Compound A was dissolved in a vehicle (physiological saline containing 1% polysorbate 80), and was administered intravenously to the animals at a volume of 2 mL/kg immediately after the MCA occlusion-reperfusion and 30 minutes after the MCA occlusion-reperfusion. The control group received an equal volume of the vehicle in the same manner.
At 24 hours after MCA occlusion, the animals were decapitated and the brains were immediately isolated. […] Graphic analysis (Adobe Photoshop™, version 3.0 J; Adobe Systems Incorporated, Color Count 0.3b; K&M Software Corporation) was applied to the photographs, and the infarct area was measured. […]

[2] = tested on: Human microvascular endothelial cells (adult) (HMVEC-AD); experiment: Recovery of ATP level after nitrogen atmosphere (luciferin-luciferase assay); format: cell-based; conditions: 5 nM, after 30 minutes nitrogen atmosphere, compared to cells treated with 0.01% DMSO alone; FIG. 2
Protocol: FIG. 2 is a graph showing the effect of Compound A on Recovery of ATP Level. Human microvascular endothelial cells (adult) (HMVEC-AD) were grown to confluence. The cells were then treated for 30 minutes with a nitrogen atmosphere and returned to normal oxygen. ATP levels were monitored at the indicated time points using a luciferin-luciferase assay system (ATPlite, Perkin Elmer). ATP levels are given as relative luminescence. N=6 cells at each time point.
Human microvascular endothelial cells (adult) (HMVEC-AD) were grown to confluence. The cells were then treated for 30 minutes with a nitrogen atmosphere and returned to normal oxygen. ATP levels were monitored at the indicated time points using a luciferin-luciferase assay system (ATPlite, Perkin Elmer).

ddY mice [3] = experiment: Persistent time of gasping movements after decapitation in mice, subcutaneous (Example 1); format: in vivo; conditions: for Persistent Time of Gasping Movements: decapitated 30 minutes after administration, Mean ± SE, n=10
Protocol: (§1) Four-week-old male ddY mice were housed in aluminum cages in an animal room controlled for temperature (24±3° C.), relative humidity (55±10%), ventilation rate (˜12 times/hour) and light-dark cycle (fluorescent lighting: 8:00 to 20:00) for at least 7 days. The animals were allowed free access to pellet diet and tap water from water bottles. Healthy animals without abnormalities in general signs were used in this study.
11-deoxy-13,14-dihydro-15-keto-16,16-difluoro-PGE1 (hereinafter, “Compound A”) was dissolved in a vehicle (physiologic saline containing 0.01% polysorbate 80 and 0.5% ethanol), and was administered subcutaneously to the animals. The control group received an equal amount of the vehicle in the same manner.
(§2) The animals were decapitated at 30 minutes after the administration, and the persistent time of gasping movements was measured.

[4] = tested on: Alzheimer's disease model animals; experiment: Morris water maze test in Alzheimer's disease model animals (bilateral ibotenic acid lesions of basal ganglia); format: in vivo, rats
Protocol: Alzheimer's disease model animals were prepared by bilateral ibotenic acid lesions of basal ganglia in rats. Briefly, rats were anesthetized with pentobarbital sodium and placed in a small animal stereotaxic apparatus. Bilateral infusions of 5 μg/0.5 μL of ibotenic acid into the basal ganglia were made at a rate of 0.1 μL/min via a syringe pump and a stainless steel cannula (outer diameter: 0.5 mm). Stereotaxic coordinates were as follows: −0.8 mm posterior from bregma, 2.6 mm lateral (both sides) from midline, and 7.4 mm depth from the bone surface. Animals in sham group received only anesthesia. Animals were then housed with free access to food and water for the rest of the study.
Compound A was orally administered for 14 days after surgery to the model animals. Control group received the same amount of the vehicle.
Morris water maze test was performed to evaluate the effect of test compound. The water maze was a circular pool (painted gray, 1.48 m in diameter, 0.33 m high). The pool contained water that was maintained at a temperature of 17-18° C. During testing in the water maze, a platform, 12 cm in diameter, was located 2 cm below the water in one of four locations (zone 4) in the pool, approximately 38 cm from the sidewall. A light bulb was placed around the pool as a cue external to the maze. The animals received 2 trials per day from 10 days after the initiation of the administration with Compound A or the vehicle. The rats were trained to locate the hidden escape platform, which remained in a fixed location throughout testing. Trials lasted a maximum of 90 sec. The latency to find the submerged platform was recorded and used as a measure of acquisition of the task. The animals were tested in this way for 4 days (total 8 trials), and then they received a probe trial on the 5th day. […] The time the rat spent searching for the platform in the training quadrant (zone 4): i.e., the previous location of the platform was recorded and used as an index of memory.

ddY mice [5] = experiment: Persistent time of gasping movements after decapitation in mice, oral administration (Example 2); format: in vivo; conditions: for Persistent Time of Gasping Movements: fasted mice, decapitated 30 minutes after administration, Mean ± SE, n=10; for Effect on persistent time of gasping movement after decapitation (in words): oral administration at 100, 300 and 1000 μg/kg
Protocol: Four-week-old male ddY mice were housed in aluminum cages in an animal room controlled for temperature (24±3° C.), relative humidity (55±10%), ventilation rate (˜12 times/hour) and light-dark cycle (fluorescent lighting: 8:00 to 20:00) for at least 7 days. The animals were allowed free access to pellet diet and tap water from water bottles. Healthy animals without abnormalities in general signs were used in this study. The animals were fasted for 20 hours or longer with free access to water before use.
Compound A and 11-deoxy-13,14-dihydro-15-keto-16,16-difluoro-PGE1 methyl ester (hereinafter, “Compound B”) were dissolved in a vehicle (physiologic saline containing 0.01% polysorbate 80 and 0.5% ethanol), and was administered orally to the animals. The control group received an equal amount of the vehicle in the same manner.
as §2

ddY mice [6] = experiment: Persistent time of gasping movements after decapitation in mice, subcutaneous (Example 3); format: in vivo; conditions: 300 μg/kg s.c.
Protocol: as §1
11-deoxy-13,14-dihydro-16,16-difluoro-PGE1 (hereinafter, “Compound C”) was dissolved in a vehicle (physiologic saline containing 0.01% polysorbate 80 and 0.5% ethanol), and was administered subcutaneously to the animals. The control group received an equal amount of the vehicle in the same manner.
as §2

Row | SMILES | Recovery of TEER (in words) [1] | Infarct volume (Crj: CD (SD) male rats; 0.05 mg/kg i.v. immediately after and 30 minutes after MCA occlusion-reperfusion, P<0.05) | Infarct volume (Crj: CD (SD) male rats; 0.5 mg/kg i.v. immediately after and 30 minutes after MCA occlusion-reperfusion, P<0.01) | Effect on cerebral infarct volume after ischemia (in words) (Crj: CD (SD) male rats; 0.05 and 0.5 mg/kg i.v., compared with vehicle group) | Recovery of ATP level (in words) [2] | Persistent Time of Gasping Movements (ddY mice [3]; 10 μg/kg s.c.) [s] | Persistent Time of Gasping Movements (ddY mice [3]; 30 μg/kg s.c.) [s] | Persistent Time of Gasping Movements (ddY mice [3]; 100 μg/kg s.c., p<0.05 vs vehicle) [s] | Persistent Time of Gasping Movements (ddY mice [3]; 300 μg/kg s.c., p<0.01 vs vehicle) [s] | Effect on persistent time of gasping movement after decapitation (in words) (ddY mice [3]; 10, 30, 100 and 300 μg/kg s.c.) | Goal latency (8th trial) ([4]; 1 mg/kg orally for 14 days after surgery, mean ± SE, n=10, p<0.01 vs vehicle) [s] | Time spent in zone 4 ([4]; 1 mg/kg orally for 14 days after surgery, probe trial 90 sec, mean ± SE, n=10, p<0.05 vs vehicle) [s] | Effect on deficit in learning and memory (in words) ([4]; orally for 14 days after surgery, Morris water maze) | Persistent Time of Gasping Movements (ddY mice [5]; 100 μg/kg p.o.) [s] | Persistent Time of Gasping Movements (ddY mice [5]; 300 μg/kg p.o.) [s] | Persistent Time of Gasping Movements (ddY mice [5]; 1000 μg/kg p.o.) [s] | Effect on persistent time of gasping movement after decapitation (in words) (ddY mice [5]) | Effect on persistent time of gasping movement after decapitation (in words) (ddY mice [6]) | Persistent Time of Gasping Movements (ddY mice [6]; decapitated 30 minutes after administration, Mean ± SE, n=10, p<0.01 vs vehicle) [s]
1 | CCCCC(F)(F)C(=O)CCC1CCC(=O)C1CCCCCCC(=O)O (centres unmarked) [Compound A, 11-deoxy-13,14-dihydro-15-keto-16,16-difluoro-PGE1] | immediate recovery of TEER | 208.2 ± 22.2* mm^3 | 172.9 ± 25.5** mm^3 | significantly reduced the cerebral infarct volume | ATP levels returned more quickly | 21.7 ± 0.6 | 22.0 ± 0.4 | 23.2 ± 0.8 | 23.6 ± 0.6 | dose-dependent prolongation | 51.5 ± 13.7 | 20.8 ± 3.6 | significant reversals of the deficit in learning and memory | 18.8 ± 0.5 | 18.9 ± 0.3 | 20.2 ± 0.6 | dose-dependent prolongation |  | 
2 | CCCCC(F)(F)C(=O)CCC1CCC(=O)C1CCCCCCC(=O)OC (centres unmarked) [Compound B, 11-deoxy-13,14-dihydro-15-keto-16,16-difluoro-PGE1 methyl ester] |  |  |  |  |  |  |  |  |  |  |  |  |  | 17.6 ± 0.5 | 19.1 ± 0.5 | 19.1 ± 0.4 | dose-dependent prolongation |  | 
3 | CCCCC(F)(F)C(O)CCC1CCC(=O)C1CCCCCCC(=O)O (centres unmarked) [Compound C, 11-deoxy-13,14-dihydro-16,16-difluoro-PGE1] |  |  |  |  |  |  |  |  |  |  |  |  |  |  |  |  |  | significant prolongation | 25.2 ± 0.7
